For assay [1], the system named is allergic reactions. Description: PCA test-method (Ovary), antiallergic activity. The assay is classed as in vivo. Particulars: for ED50: iv. Here is the method:
The test is carried out by the PCA test-method (Ovary: J. Immun. 81, 355 (1958)) and the Church-test (British J. Pharm. 46, 56-66 (1972); Immunology 29, 527-534 (1975)) and for comparison disodium chromoglycate is used.

In assay [2] the test system is allergic symptoms. To be noted: antiasthmatic agent, cited from earlier work.

SMILES strings stand for the structures.

Usually ED50 stands for the dose at which the effect has come halfway, by size or by number of responders. High values mean a need for a large dose, low ones an effect at a small dose. For `Cc1ccccc1NC1=CCC(C)n2c1ncc(C(=O)O)c2=O` (stereo not drawn) [6-methyl-9-(2-methylphenylamino)-4-oxo-6,7-dihydro-4H--pyrido[1,2-a]pyrimidine-3-carboxylic acid], it took a dose of 5.4 µmol/kg to reach the 50% effect level in assay [1] (ED50).
Same read-out and setting: to `CC1CC=C(Nc2ccccc2)c2ncc(C(=O)O)c(=O)n21` (stereo not drawn) [9-anilino-6-methyl-4-oxo-6,7-dihydro-4H-pyrido[1,2-a]pyrimidine-3-carboxylic acid] belongs 1.3 µmol/kg.
Take `O=C(O)c1cc(=O)c2c(OCC(O)COc3cccc4oc(C(=O)O)cc(=O)c34)cccc2o1` [disodium chromoglycolate]: it took a dose of 1 µmol/kg to reach the 50% effect level in assay [1] (ED50). Further, in assay [1] (oral vs. intravenous, conclusion from Table I), the “oral activity / route of effectiveness” value was “effective only when administered intravenously”. In addition, the “effect by inhaler (background statement)” value in assay [2] (inhaler) is on record as “produces the desired effect only by using an inhaler”. Also, in assay [2] (orally), the “oral activity (background statement)” value is “not active orally”.
